≈ marks a conversion by molar mass, not a printed value.
Key:
[1] = system: Candida albicans; assay: Inhibition of CYP51 in azole-resistant Candida albicans ATCC […] assessed as Eburicol level at 8 ug/ml incubated for 16 hrs by LC-MS analysis relative to control; design: scale not given: the % may be the effect or the level left; conditions: dose 8.0 µg/ml
[2] = system: Candida albicans; assay: Inhibition of CYP51 in azole-resistant Candida albicans ATCC […] assessed as Eburicol level at 0.03125 ug/ml incubated for 16 hrs by LC-MS analysis relative to control; design: scale not given: the % may be the effect or the level left; conditions: dose 0.03125 µg/ml
[3] = system: Nakaseomyces glabratus; assay: Antifungal activity against clinical isolate Candida glabrata measured after 24 hrs by micro-broth dilution assay; format: functional
[4] = system: Candida albicans; assay: Inhibition of CYP51 in azole-resistant Candida albicans ATCC […] assessed as Obtusifoliol level at 0.5 ug/ml incubated for 16 hrs by LC-MS analysis relative to control; design: scale not given: the % may be the effect or the level left; conditions: dose 0.5 µg/ml
[5] = system: Candida albicans; assay: Antifungal activity against Candida albicans 901 measured after 24 hrs by micro-broth dilution assay; format: functional
[6] = system: Candida albicans; assay: Antifungal activity against Candida albicans ATCC SC5314 measured after 24 hrs by micro-broth dilution assay; format: functional
[7] = system: Cryptococcus neoformans; assay: Antifungal activity against Cryptococcus neoformans CGMCC2.3161 measured after 72 hrs by micro-broth dilution assay; format: functional
[8] = system: Candida albicans; assay: Inhibition of CYP51 in azole-resistant Candida albicans ATCC […] assessed as Eburicol level at 2 ug/ml incubated for 16 hrs by LC-MS analysis relative to control; design: scale not given: the % may be the effect or the level left; conditions: dose 2.0 µg/ml
[9] = system: [Candida] zeylanoides; assay: Antifungal activity against Candida zeylanoides CMGCC2.3739 measured after 24 hrs by micro-broth dilution assay; format: functional; conditions: Dujonia zeylanoides
[10] = system: Candida albicans; assay: Inhibition of CYP51 in azole-resistant Candida albicans ATCC […] assessed as Lanosterol level at 0.125 ug/ml incubated for 16 hrs by LC-MS analysis relative to control; design: scale not given: the % may be the effect or the level left; conditions: dose 0.125 µg/ml
[11] = system: Candida albicans; assay: Inhibition of CYP51 in azole-resistant Candida albicans ATCC […] assessed as Obtusifoliol level at 0.03125 ug/ml incubated for 16 hrs by LC-MS analysis relative to control; design: scale not given: the % may be the effect or the level left; conditions: dose 0.03125 µg/ml
[12] = system: Candida albicans; assay: Antifungal activity against fluconazole-resistant Candida albicans strain 904 measured after 24 hrs by micro-broth dilution assay; format: functional
[13] = system: Candida albicans; assay: Inhibition of CYP51 in azole-resistant Candida albicans ATCC […] assessed as Obtusifoliol level at 2 ug/ml incubated for 16 hrs by LC-MS analysis relative to control; design: scale not given: the % may be the effect or the level left; conditions: dose 2.0 µg/ml
[14] = system: Candida albicans; assay: Antifungal activity against Candida albicans CPCC400616 measured after 24 hrs by micro-broth dilution assay; format: functional
[15] = system: Candida albicans; assay: Inhibition of CYP51 in azole-resistant Candida albicans ATCC […] assessed as Obtusifoliol level at 8 ug/ml incubated for 16 hrs by LC-MS analysis relative to control; design: scale not given: the % may be the effect or the level left; conditions: dose 8.0 µg/ml
[16] = system: Candida parapsilosis; assay: Antifungal activity against Candida parapsilosis ATCC 22019 measured after 24 hrs by micro-broth dilution assay; format: functional; conditions: Lodderomyces parapsilosis
[17] = system: Candida albicans; assay: Inhibition of CYP51 in azole-resistant Candida albicans ATCC […] assessed as inhibition of ergosterol biosynthesis by measuring ergosterol content at 8 ug/ml incubated for 16 hrs by LC-MS analysis relative to control; design: scale not given: the % may be the effect or the level left; conditions: dose 8.0 µg/ml
[18] = system: Candida albicans; assay: Inhibition of CYP51 in azole-resistant Candida albicans ATCC […] assessed as ergosterol level at 0.5 ug/ml incubated for 16 hrs by LC-MS analysis relative to control; design: scale not given: the % may be the effect or the level left; conditions: dose 0.5 µg/ml
[19] = system: Candida albicans; assay: Antifungal activity against fluconazole-resistant Candida albicans 632 measured after 24 hrs by micro-broth dilution assay; format: functional
[20] = system: Candida albicans; assay: Inhibition of CYP51 in azole-resistant Candida albicans ATCC […] assessed as ergosterol level at 2 ug/ml incubated for 16 hrs by LC-MS analysis relative to control; design: scale not given: the % may be the effect or the level left; conditions: dose 2.0 µg/ml
[21] = system: Candida albicans; assay: Inhibition of CYP51 in azole-resistant Candida albicans ATCC […] assessed as Lanosterol level at 0.03125 ug/ml incubated for 16 hrs by LC-MS analysis relative to control; design: scale not given: the % may be the effect or the level left; conditions: dose 0.03125 µg/ml
[22] = system: Candida albicans; assay: Inhibition of CYP51 in azole-resistant Candida albicans ATCC […] assessed as ergosterol level at 0.125 ug/ml incubated for 16 hrs by LC-MS analysis relative to control; design: scale not given: the % may be the effect or the level left; conditions: dose 0.125 µg/ml
[23] = system: Candida albicans; assay: Inhibition of CYP51 in azole-resistant Candida albicans ATCC […] assessed as Eburicol level at 0.125 ug/ml incubated for 16 hrs by LC-MS analysis relative to control; design: scale not given: the % may be the effect or the level left; conditions: dose 0.125 µg/ml
[24] = system: Pichia kudriavzevii; assay: Antifungal activity against Candida krusei AS 2.1045 measured after 24 hrs by micro-broth dilution assay; format: functional
[25] = system: Candida albicans; assay: Antifungal activity against fluconazole-resistant Candida albicans CaR measured after 24 hrs by micro-broth dilution assay; format: functional
[26] = system: Candida albicans; assay: Inhibition of CYP51 in azole-resistant Candida albicans ATCC […] assessed as Lanosterol level at 8 ug/ml incubated for 16 hrs by LC-MS analysis relative to control; design: scale not given: the % may be the effect or the level left; conditions: dose 8.0 µg/ml
[27] = system: Candida albicans; assay: Inhibition of CYP51 in azole-resistant Candida albicans ATCC […] assessed as Eburicol level at 0.5 ug/ml incubated for 16 hrs by LC-MS analysis relative to control; design: scale not given: the % may be the effect or the level left; conditions: dose 0.5 µg/ml
[28] = system: Aspergillus fumigatus; assay: Antifungal activity against Aspergillus fumigatus CGMCC 3.7795 measured after 72 hrs by micro-broth dilution assay; format: functional
[29] = system: Candida albicans; assay: Inhibition of CYP51 in azole-resistant Candida albicans ATCC […] assessed as Obtusifoliol level at 0.125 ug/ml incubated for 16 hrs by LC-MS analysis relative to control; design: scale not given: the % may be the effect or the level left; conditions: dose 0.125 µg/ml
[30] = system: Candida albicans; assay: Inhibition of CYP51 in azole-resistant Candida albicans ATCC […] assessed as Lanosterol level at 0.5 ug/ml incubated for 16 hrs by LC-MS analysis relative to control; design: scale not given: the % may be the effect or the level left; conditions: dose 0.5 µg/ml
[31] = system: Candida albicans; assay: Inhibition of CYP51 in azole-resistant Candida albicans ATCC […] assessed as ergosterol level at 0.03125 ug/ml incubated for 16 hrs by LC-MS analysis relative to control; design: scale not given: the % may be the effect or the level left; conditions: dose 0.03125 µg/ml
[32] = system: Candida albicans; assay: Antifungal activity against fluconazole-resistant Candida albicans 17 measured after 24 hrs by micro-broth dilution assay; format: functional
[33] = system: Candida albicans; assay: Inhibition of CYP51 in azole-resistant Candida albicans ATCC […] assessed as Lanosterol level at 2 ug/ml incubated for 16 hrs by LC-MS analysis relative to control; design: scale not given: the % may be the effect or the level left; conditions: dose 2.0 µg/ml
[34] = system: Candida albicans; assay: Fungicidal activity against Candida albicans CPCC400616 measured after 48 hrs; format: functional
[35] = Ratio of MFC for fungicidal activity against Candida albicans CPCC400616 to MIC for Antifungal activity against Candida albicans CPCC400616; format: functional; conditions: time 24 hrs
[36] = Ratio of hemolysis activity in rabbit RBC to MIC for Candida albicans; format: toxicity; conditions: rabbit red blood cells (RBC)

Row | SMILES | MIC [3] | MIC [5] | MIC [6] | MIC [7] | MIC [9] | MIC [12] | MIC [14] | MIC [16] | MIC [19] | MIC [24] | MIC [25] | MIC [28] | MIC [32] | MIC [34] | further results
1 | OC(Cn1cncn1)(Cn1cncn1)c1ccc(F)cc1F [FLUCONAZOLE] | 32 µg/mL (≈ 104 µM) | > 128 µg/mL | 1 µg/mL (≈ 3.27 µM) | 4 µg/mL (≈ 13.1 µM) | 4 µg/mL (≈ 13.1 µM) | > 128 µg/mL | 4 µg/mL (≈ 13.1 µM) | 4 µg/mL (≈ 13.1 µM) | > 128 µg/mL | 32 µg/mL (≈ 104 µM) | > 128 µg/mL | > 128 µg/mL | 128 µg/mL (≈ 418 µM) | – | Activity [1]: 70.6%; Activity [2]: 2.9%; Activity [4]: 9%; Activity [8]: 75.2%; Activity [10]: 7.2%; Activity [11]: 1.6%; Activity [13]: 17.7%; Activity [15]: 9.2%; Activity [17]: 74.8%; Activity [18]: 7.1%; Activity [20]: 5.2%; Activity [21]: 9.8%; Activity [22]: 8.3%; Activity [23]: 6.7%; Activity [26]: 9.4%; Activity [27]: 70.6%; Activity [29]: 11.4%; Activity [30]: 9.5%; Activity [31]: 12.2%; Activity [33]: 7.4%
2 | Fc1cccc(C[Se]C(Cn2ccnc2)c2ccc(F)cc2F)c1 (stereo not drawn) | 0.5 µg/mL (≈ 1.26 µM) | 8 µg/mL (≈ 20.2 µM) | 0.03 µg/mL (≈ 0.0759 µM) | 0.5 µg/mL (≈ 1.26 µM) | 1 µg/mL (≈ 2.53 µM) | 1 µg/mL (≈ 2.53 µM) | 0.03 µg/mL (≈ 0.0759 µM) | 0.25 µg/mL (≈ 0.632 µM) | 8 µg/mL (≈ 20.2 µM) | 0.13 µg/mL (≈ 0.329 µM) | 4 µg/mL (≈ 10.1 µM) | 2 µg/mL (≈ 5.06 µM) | 0.06 µg/mL (≈ 0.152 µM) | > 128 µg/mL | –
3 | Fc1ccc(C(Cn2ccnc2)[Se]Cc2ccc(Cl)cc2Cl)c(F)c1 (stereo not drawn) | 1 µg/mL (≈ 2.24 µM) | 0.5 µg/mL (≈ 1.12 µM) | 0.13 µg/mL (≈ 0.291 µM) | 0.25 µg/mL (≈ 0.56 µM) | 0.5 µg/mL (≈ 1.12 µM) | 2 µg/mL (≈ 4.48 µM) | 0.03 µg/mL (≈ 0.0672 µM) | 0.03 µg/mL (≈ 0.0672 µM) | 2 µg/mL (≈ 4.48 µM) | 0.06 µg/mL (≈ 0.134 µM) | 16 µg/mL (≈ 35.9 µM) | 0.5 µg/mL (≈ 1.12 µM) | 1 µg/mL (≈ 2.24 µM) | 0.125 µg/mL (≈ 0.28 µM) | MFC/MIC ratio [35]: 4; selectivity ratio [36]: 64
